In article PMC9312114, “Synthesis and Evaluation of Novel DNA Minor Groove Binders as Antiamoebic Agents” (Antibiotics, 2022):

Key:
Acanthamoeba castellanii [1] = assay: Amoebicidal assay; format: cell-based, Acanthamoeba castellanii genotype T4 (ATCC 50492)
Protocol: Acanthamoeba castellanii genotype T4 (ATCC 50492) was cultivated in 10 mL growth medium of peptone yeast glucose (PYG) in tissue flasks (Baig, et al., 2021; Anwar, et al., 2019). The growth medium, PYG, consists of 0.75% proteose peptone, 0.75% yeast extract, and 1.5% glucose. Next, the amoebae were kept in tissue flasks and incubated at 30 °C.
To determine the compounds’ antiamoebic effects, amoebicidal assays were conducted. The 5 × 10^5 amoebae were placed in a 24-well plate and brought to a final volume of 500 µL. […] The 24-well plate was then placed in a 30 °C incubator for 24 h. Positive and negative controls were added to the assay in order to ensure reliable results. Serving as the negative control was the amoebae alone, with RPMI [4]. Meanwhile, amoebae, along with 0.25% sodium dodecyl sulphate (SDS), were used as the positive control. Through the addition of 0.1% methylene blue, live and dead amoebae were distinguished. Additionally, significant compounds were identified by conducting a Student’s t-test with a two-tailed distribution. Furthermore, the MIC50 values of three compounds were determined by using concentrations of […], 75, and 100 µM.

Acanthamoeba castellanii [2] = assay: Encystation assay; format: cell-based; settings: 16% glucose, 48 h, negative control 100% cysts
Protocol: The effects of the compounds on amoeba encystation were determined through the conduction of encystation assays. Briefly, 1 × 10^6 trophozoites were incubated with the compounds in a final concentration of 16% filter-sterilized glucose. Following a 48 h incubation period, 0.1% SDS was added per well for 20 min. The cysts were then counted by using a haemocytometer. To ensure accuracy, Acanthamoeba castellanii was cultured in 16% glucose, serving as the negative control.

[3] = tested on: Acanthamoeba castellanii cysts; assay: Excystation assay; format: cell-based; settings: cysts in PYG, negative control 100%, read-out: viable trophozoites (re-emergence of cysts to trophozoites)
Protocol: Amoeba culture was suspended in 3 mL phosphate-buffered saline (PBS) and placed on non-nutrient bacteriological agar plates to allow for the growing of Acanthamoeba castellanii cysts. After two weeks, PBS was applied to plates containing amoeba cysts, which were then scraped off. The amoebae were centrifuged at 3000× g for 10 min, and the resulting pellet was resuspended in RPMI. The 5 × 10^5 cysts were then incubated in PYG, along with 50 µM of the compounds. To ensure accuracy, amoeba cysts in PYG alone were considered as the negative control, whereas amoeba cysts in RPMI alone were taken as the positive control, as the cysts would not be able to revert back to trophozoites. The amoeba trophozoites were then numbered by using a haemocytometer.

HeLa cells = assay: Cytotoxicity assay (LDH release); format: cell-based, human; settings: 50 µM, 24 h, LDH release, Triton X-100 = 100%
Protocol: HeLa cells were acquired from American Type Culture Collection (ATCC) of identification ATCC CCL-2, Singapore. The cells are utilized to conduct cytotoxicity and cytopathogenicity assays. Through their cultivation in complete media, the cells were grown, and then they were placed in a 95% humidifying incubator at 37 °C and 5% CO2. Complete medium comprises Roswell Park Memorial Media (RPMI), 1% penicillin–streptomycin, 1% minimum essential medium amino acids, 1% L-glutamine, and 10% fetal bovine serum (FBS). To determine the toxicity of the compounds against human HeLa cells, cytotoxicity assays were conducted. In short, HeLa cells were cultured in 96-well plates and treated with the compounds. The plate was then placed in a humidifying incubator with 95% humidity and 5% CO2, at 37 °C, for 24 h. After 24 h, the supernatant was collected, and the cytotoxicity of the compounds was determined through a cytotoxicity detection kit that measured the quantity of lactate dehydrogenase (LDH) release. Accurate results were ensured through the addition of positive and negative controls. Untreated HeLa cells served as the negative control, whereas HeLa cells treated with 1% Triton X-100 served as the positive control. Finally, the cytotoxic properties were numerically determined by following the necessary calculations: (absorbance of media from cells treated with the drugs—absorbance of media from cells of negative control)/(absorbance of media from cells of positive control—absorbance of media from cells of negative control) × 100 [19].

[4] = tested on: Acanthamoeba castellanii on HeLa cell monolayers; assay: Cytopathogenicity assay (amoeba-mediated host-cell death); format: cell-based; settings: amoebae pretreated with 50 µM for 2 h, then 24 h on HeLa cells, negative control 100%
Protocol: Amoeba-mediated host-cell death was determined by treating 5 × 10^5 amoebae with 50 µM of compounds. The amoeba-containing plate was then placed in the incubator for 2 h at 30 °C. Following the 2 h incubation period, the treated amoebae were put on confluent HeLa cell monolayers. The plate containing the treated amoebae and HeLa cells was incubated for 24 h. Progressing the incubation period, the supernatant was collected, and the cytotoxicity was determined. Accurate results were ensured through the addition of negative and positive controls. The untreated amoebae, alone, on the cells served as the negative control, while the cells treated with Triton X-100 served as the positive control.

DNA = assay: Biophysical analysis of binding with DNA; settings: in words

With `CN(C)CCCNC(=O)c1cc(NC(=O)c2cc(NC(=O)c3cc(NC(=O)c4nccn4C)cn3C)cn2C)cn1C` [MGB5, N-(5-((5-((5-((3-(dimethylamino)propyl)carbamoyl)-1-methyl-1H-pyrrol-3-yl)carbamoyl)-1-methyl-1H-pyrrol-3-yl)carbamoyl)-1-methyl-1H-pyrrol-3-yl)-1-methyl-1H-imidazole-2-carboxamide] the viability at 50 µM (Acanthamoeba castellanii [1]; Acanthamoeba castellanii, 50 µM, 24 h, negative control 100%, read-out: amoeba viability) was 98.4%, the “activity against Acanthamoeba castellanii” value (Acanthamoeba castellanii [1]; in words) was “no activity” and the cysts present (Acanthamoeba castellanii [2]) was 48.3%. For the same compound, the viability at 50 µM [3] was 80.8%, the “cytotoxicity against human HeLa cells” value (HeLa cells) was 10.9% and the “amoeba-mediated host-cell death (cytotoxic activity due to amoeba)” value [4] was 57.8%. The “ability to bind with DNA” value (DNA) was “bind with DNA”.
